Results reported in a melting point compilation (Tetko et al.; mined from patent text by program, amines drawn as free bases though some values may be those of a salt).

Row | melting point | SMILES
1 | 178 to 179 °C | Cc1nc2ccccc2c2c([N+](=O)[O-])cnn12
2 | 101 to 104 °C | CCCCCCCN(Cc1ccc(C(C)(C)C)cc1)C(Nc1ccc(Cl)cc1)=C1C(=O)COC1=O
3 | 126 to 127 °C | CCOc1nn(-c2ccc(C(F)(F)F)cc2)cc1CCCOc1cc(CCC(=O)O)n(-c2ccccc2)n1
4 | 169 to 170 °C | Cc1ccc2c(c1)C(CCO)N(c1cccc([N+](=O)[O-])c1)N(C)C2=O (configuration not stated)
5 | 179 to 180 °C | O=C(O)Cc1ccc(OCc2ccc3oc([N+](=O)[O-])c(-c4ccccc4)c3c2)cc1
6 | 95 to 96 °C | CN(Cc1ccccc1)C(=O)COc1ccc([N+](=O)[O-])cc1
7 | 149 to 150 °C | CC#Cc1c(-c2ccc(S(C)(=O)=O)cc2)cnn(-c2ccc(F)c(F)c2)c1=O
8 | 195 to 197 °C | CCn1cc(-c2ccncn2)cc(Br)c1=O
9 | 85 to 86 °C | Nc1ncnc2c1c(-c1ccc(Oc3ccccc3)cc1)cn2CCCCCCCCN1C(=O)c2ccccc2C1=O
10 | 101 to 102 °C | COc1ccc(CSc2ccc([N+](=O)[O-])cc2CO)cc1
11 | 236 °C | CCOC(=N)c1sc2ccc(Cl)cc2c1O
12 | 186 °C | O=[N+]([O-])c1ccc(Nc2ccccc2)s1
13 | 160 to 161 °C | O=C(CCCCCCNC(=O)c1cc2cccc3c2n1CCC3)NO
14 | 151 to 155 °C | COC(=O)c1ccc(S(C)(=O)=O)c(CC#N)c1Cl
15 | 193 to 196 °C | O=[N+]([O-])c1ccc(O)c(C(=NO)c2ccccc2)c1
16 | 100 to 103 °C | CCc1ccc(Nc2c(-c3nnc(NCCO)o3)ccc(F)c2F)c(F)c1
17 | > 280 °C | N#CCC(=O)Nc1ccc(-c2ccc(C(=O)O)c(=O)[nH]2)cc1
18 | 120 °C | CCCC(CCC)(CCC)NC(=O)NC
19 | 314 to 318 °C | CCCn1c(=O)c2[nH]c(-c3ccc(C#N)cc3)nc2n(C)c1=O
20 | 129 to 130 °C | CCOC(=O)c1nc(CCl)n(-c2ccccc2C(=O)c2ccccn2)n1
21 | 100 to 102 °C | CCC(C)CCOc1c(-c2ccc(S(C)(=O)=O)cc2)cnn(-c2ccc(F)c(F)c2)c1=O (configuration not stated)
22 | 256 to 258 °C | Oc1ccc2nc(-c3cccc(O)c3O)oc2c1

Row | melting point | SMILES
23 | 152 to 154 °C | CC(C)c1cccc(C(C)C)c1NC(=O)NOC(c1ccccc1)c1ccccc1
24 | 220 to 222 °C | COc1cc(OC)c(N2CCCC2)cc1/C=C/C(=O)c1ccc(S(N)(=O)=O)cc1
25 | 58 °C | C[C@H](CSC(=O)C(C)(C)C)C(=O)N(CC(=O)OC(C)(C)C)C1CCCC1
26 | 177 to 178 °C | CSc1nsc(NC(=O)C(C)(C)C)c1C#N
27 | 233 to 238 °C | CNc1c(F)cc2c(=O)c(C(=O)O)cn(-c3ccc(F)c(N)n3)c2c1Cl
28 | > 300 °C | Cc1cc(Cn2c(O)nc3c(N)nc(C)c(C)c32)on1
29 | 124 to 127 °C | CCOC(=O)c1ccc(NCCOc2cccc3ccccc23)cc1
30 | 178 to 180 °C | COC(=O)c1ccc2cc(NC(=O)OC(C)(C)C)ccc2c1
31 | 142 to 145 °C | CS(=O)(=O)c1ccc(-c2cnn(CC(F)(F)F)c(=O)c2Sc2ccc(F)c(Cl)c2)cc1
32 | 194 °C | Nc1c([N+](=O)[O-])cnn1-c1ncc(Cl)cc1Cl
33 | 278 to 283 °C | COc1ccc(C(=O)NC(=O)Nc2ccc3c(c2)NC(=O)/C3=C/c2ccc(Cl)cc2)cc1
34 | 74 °C | COc1ccc(-c2ccc(OC3SCC(OC(C)=O)C(OC(C)=O)C3OC(C)=O)cn2)cn1 (configuration not stated)
35 | 95 °C | CN(C)CCCOc1ccc(-c2nnc(-c3ccc(Oc4ccccc4)cc3)o2)cc1
36 | 104 to 105 °C | CC(C)CC(=O)OC1COC(OC(=O)CC(C)C)CO1 (configuration not stated)
37 | 75 to 77 °C | COC(=O)Nc1ccc(C(=O)N(C)C)c(S(N)(=O)=O)c1
38 | > 268 °C | N#Cc1cccc(-c2cnc3cnc(-c4ccc(O)cc4)nc3c2)c1
39 | 35 to 36 °C | c1ccc(OCCCCN2CCNCC2)cc1
40 | 108 to 110 °C | CCN(CC)CCCCC(=O)c1ccc2c(c1)C(=O)c1cc(C(=O)CCCCN(CC)CC)ccc1-2
41 | 131 °C | COc1cc(CC#N)c(CCNC(=O)C(F)(F)F)cc1OC
42 | 235 to 238 °C | Cc1ccc(Cl)c(Nc2ccccc2C=C2SC(=N)NC2=O)c1Cl
43 | 71 to 72 °C | O=C1CCC=C1c1ccc(Cl)cc1
44 | 184 to 186 °C | CN(C)N=Nc1cc([N+](=O)[O-])sc1C(=O)O

Row | melting point | SMILES
45 | 184 °C | CC(=O)OC1CCC2C3CCc4cc(O)c(C=O)cc4C3CCC12C (configuration not stated)
46 | 77 to 78 °C | Cc1cc(C(C)(C)C)c(O)c2c1C1CCCCC1C2=O (configuration not stated)
47 | 162 to 163 °C | CC=C1CCC(C(=O)OC)C(C(=O)OC)C1 (configuration not stated)
48 | 109 to 110 °C | CNCc1cc(=O)oc2cc(OC)ccc12
49 | 159 to 163 °C | Cn1cc(C2=C(c3c4n(c5ccccc35)CC(NC(=O)OC(C)(C)C)CC4)C(=O)NC2=O)c2ccccc21 (configuration not stated)
50 | 170 to 173 °C | Cc1cn(Cc2ccccc2)c(=O)[nH]c1=O
51 | 278 to 280 °C | CC(=O)Nc1ccc(NC(C)=O)c2c1C(=O)c1ccccc1C2=O
52 | 68 to 70 °C | CN1C(=O)N(CCC(COc2ccc(-c3ccc(C#N)cc3)cc2)N(O)C=O)C(=O)C1(C)C (configuration not stated)
53 | 93.5 to 93.9 °C | O=C(NCCc1ccccc1Cl)C1CCCCC1
54 | 146 to 148 °C | C#CCN(C(C)C)C(C)CC1=C2c3ccc(OC)cc3CCC2CCNC1=O (configuration not stated)
55 | 97 °C | COC(=O)CCCc1cc2nc(C(F)(F)F)ccc2n1S(=O)(=O)c1ccc(Cl)cc1
56 | 101 to 103 °C | Cc1ccc(-c2ccc(-c3nnnn3CCCCCCc3cccnc3)cc2)cc1C
57 | 194 to 197 °C | O=S(Cc1cccc(C(F)(F)F)c1)c1nc2cnccc2[nH]1 (configuration not stated)
58 | 206 to 207 °C | CCCCC(=O)Nc1ccc(C(=O)Nc2ccc3cc(CN4CCCC4)cnc3c2C)cc1
59 | 155 °C | COc1ccc2c(c1)c(=O)oc(=O)n2-c1ccc(OCc2ccccc2)cc1
60 | 94 to 96 °C | Cc1cc(C=O)ccc1-c1ccc(O)cc1
61 | 190 to 191 °C | O=C(N[C@H](Cc1ccccc1)C(=O)O)OCc1ccc2nc(-c3ccccc3)ccc2c1
62 | 143 to 144 °C | c1ccc(N=C(Nc2ccccc2)c2ccccc2)cc1
63 | 102 to 103 °C | Nc1ccccc1-c1ccc(C(O)CCC(=O)O)cc1 (configuration not stated)
64 | 176 to 177 °C | CCCC[C@H]1CC[C@H](OC(=O)c2cc(Sc3ccc(C)cc3)c3c(c2N)C(=O)c2ccccc2C3=O)CC1

Row | SMILES | melting point
65 | CN1CCN(c2cc3c(F)cccc3c(=O)[nH]2)CC1 | 238 to 239 °C
66 | COC12CC(C)(c3nc(-c4cncc(Br)c4)no3)CN(C)C1Cc1c(Br)n(C)c3cccc2c13 (configuration not stated) | 167 to 172 °C
67 | NCC(CC(=O)O)c1ccc(Cl)c(Cl)c1 (configuration not stated) | 202 to 204 °C
68 | OC(CN1CC1)c1ccccc1 (configuration not stated) | 74 to 76 °C
69 | O=C(CS(=O)(=O)Cc1ccccc1)CS(=O)(=O)C(c1ccc(Cl)cc1)c1ccc(Cl)cc1 | 72 to 90 °C
70 | Cc1cc(Cl)cc(C(=O)NC(C)(C#N)C2CC2)c1NC(=O)c1cc(C(F)(F)F)nn1-c1ncccc1Cl (configuration not stated) | 226 to 228 °C
71 | N#Cc1ccc(N2CCC[C@H]2C(N)=O)c2ccccc12 | 177 to 178 °C
72 | CC(C)(O)P(=O)(Oc1ccccc1)Oc1ccccc1 | 70 to 72 °C
